The target in one series is T1, Protein Mdm4 (Homo sapiens, UniProt O15151).
T1 sequence (O15151 whole entry): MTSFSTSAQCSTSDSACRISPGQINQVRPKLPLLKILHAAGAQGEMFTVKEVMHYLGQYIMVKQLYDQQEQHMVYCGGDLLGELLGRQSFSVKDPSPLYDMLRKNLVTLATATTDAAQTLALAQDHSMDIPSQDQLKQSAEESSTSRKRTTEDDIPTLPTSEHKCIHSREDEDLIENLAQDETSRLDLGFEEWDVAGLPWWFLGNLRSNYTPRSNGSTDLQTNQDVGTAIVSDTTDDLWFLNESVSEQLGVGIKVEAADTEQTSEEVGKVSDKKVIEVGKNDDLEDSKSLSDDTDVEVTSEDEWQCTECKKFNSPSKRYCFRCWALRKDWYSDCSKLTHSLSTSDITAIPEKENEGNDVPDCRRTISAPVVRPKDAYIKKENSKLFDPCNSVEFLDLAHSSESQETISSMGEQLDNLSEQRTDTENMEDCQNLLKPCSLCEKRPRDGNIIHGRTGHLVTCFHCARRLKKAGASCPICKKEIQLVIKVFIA
In words: Inhibition of MDMX (unknown origin) binding to FAM-LTFEHYWAQLTS-NH2 after 30 mins by fluorescence polarization assay.

Series [1] can be described thus: Solubility of the compound in DMEM medium at > 30 uM. Type of series: physicochemical.
Series [2] has as its target E3 ubiquitin-protein ligase Mdm2 (Homo sapiens, UniProt Q00987). In words: Inhibition of MDM2 (unknown origin) binding to FAM-LTFEHYWAQLTS-NH2 after 30 mins by fluorescence polarization assay. A general note: In fluorescence polarisation assays a small probe gives low polarisation when free and higher when bound to something large.
Another series has as its system A549. In words: Growth inhibition of human A549 cells after 72 hrs by MTS assay. Type of series: functional, cell-based. The conditions noted are these: A549, 72 h. (Formazan colour is commonly taken as a measure of viable cells.)

SMILES strings stand for the structures. Residues, ends and D or L forms follow the SMILES beside them. *: point of attachment. Mts = Cc1cc(C)c(S(=O)(=O)*)c(C)c1; Npys = O=[N+]([O-])c1cccnc1S*; X1 = COc1ccc(COC(=O)*)cc1; Boc = CC(C)(C)OC(=O)*; OBn = c1ccc(CO*)cc1; X2 = C1CCCC(O*)CC1; NHNH2 = NN*

As a reminder, the IC50 is the concentration that gives 50% inhibition. High values mean a need for much substance, low ones inhibition by little substance. As a reminder, the EC50 is the concentration at which the effect is half-maximal.

Chain of E3 ubiquitin-protein ligase Mdm2 (Q00987 whole entry): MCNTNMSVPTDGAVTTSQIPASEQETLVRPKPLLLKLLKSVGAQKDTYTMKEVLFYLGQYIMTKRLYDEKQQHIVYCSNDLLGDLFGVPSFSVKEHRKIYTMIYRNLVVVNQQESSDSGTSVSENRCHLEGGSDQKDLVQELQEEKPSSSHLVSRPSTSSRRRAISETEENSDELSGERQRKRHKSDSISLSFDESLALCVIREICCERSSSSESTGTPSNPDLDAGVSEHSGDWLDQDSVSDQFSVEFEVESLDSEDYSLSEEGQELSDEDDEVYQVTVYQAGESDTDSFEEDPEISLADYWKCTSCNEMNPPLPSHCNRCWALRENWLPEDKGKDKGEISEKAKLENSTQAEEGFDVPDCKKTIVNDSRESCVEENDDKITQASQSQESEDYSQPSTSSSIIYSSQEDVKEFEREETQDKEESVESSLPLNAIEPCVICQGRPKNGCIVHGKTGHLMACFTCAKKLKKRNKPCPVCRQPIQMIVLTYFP

Consider `COc1ccc(COC(=O)N[C@H](C(=O)N[C@@H](CCC(C)=O)C(=O)N[C@@H](Cc2cn(S(=O)(=O)c3c(C)cc(C)cc3C)c3ccccc23)C(=O)N[C@@H](CC(C)C)C(=O)NN)C(C)C)cc1`, for which the IC50 on Protein Mdm4 was 32.4 µM; in series [2] it was 8.51 µM. The solubility result in series [1] is “Insoluble”. The molecule further registered an EC50 in the series with A549 of more than 30 µM.
Take `CC[C@H](C)[C@H](NC(=O)[C@H](Cc1ccccc1)NC(=O)[C@H](CSSc1ncccc1[N+](=O)[O-])NC(=O)OC(C)(C)C)C(=O)N[C@@H](CCCNC(=N)NS(=O)(=O)c1c(C)cc(C)cc1C)C(=O)OC` (Boc-C(Npys)FIR(Mts)-OMe): the results for the IC50 (at Protein Mdm4; in series [2]) were 42.1 µM and 22.2 µM, respectively. In the series with A549, this molecule showed an EC50 of 13.7 µM.
Regarding `COc1ccc(COC(=O)N[C@@H](C)C(=O)N[C@@H](CCC(=O)OCc2ccccc2)C(=O)N[C@@H](CC(C)C)C(=O)N[C@H](C(=O)N[C@@H](CC(=O)OC2CCCCCC2)C(=O)N[C@@H](C)C(=O)NN)C(C)C)cc1` (X1-AE(OBn)LVD(X2)A-NHNH2), the IC50 at Protein Mdm4 was found to be 52.5 µM; in series [2], 21.3 µM. The solubility entry in series [1] is on record as “Insoluble”. Moreover, the EC50 with A549 was more than 30 µM.

(Values after ChEMBL document CHEMBL2396614, “Affinity-based screening of MDM2/MDMX-p53 interaction inhibitors by chemical array: identification of novel peptidic inhibitors” (Bioorg Med Chem Lett, 2013).)
